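Cells were grown in 96-well plates and exposed to each compound for 48 hours at five concentrations; endpoints were interpolated linearly between bracketing concentrations, or set to the highest concentration if not reached. GI50 is the concentration that inhibits growth by half. TGI marks complete inhibition of growth.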
Key:
Assay in all cases: growth of human tumour cells (NCI), 48 h
[1] = test system: KM12 colon
[2] = test system: HCT-15 colon
[3] = test system: U251 CNS
[4] = test system: UACC-257 melanoma
[5] = test system: 786-0 renal
[6] = test system: M14 melanoma
[7] = test system: TK-10 renal
[8] = test system: UACC-62 melanoma
[9] = test system: HL-60(TB) leukemia
[10] = test system: HCT-116 colon

SMILES | TGI [1] | TGI [2] | TGI [3] | TGI [4] | TGI [5] | TGI [6] | TGI [7] | TGI [8] | TGI [9] | TGI [10] | GI50 [1] | GI50 [2] | GI50 [3] | GI50 [4] | GI50 [5] | GI50 [6] | GI50 [7] | GI50 [8] | GI50 [9] | GI50 [10]
COC(=O)C1=NC(=S)NC(c2ccccc2)C1c1nc2ccccc2s1 (stereo not drawn) | > 100 µM | > 100 µM | > 100 µM | > 100 µM | > 100 µM | > 100 µM | > 100 µM | > 100 µM | > 100 µM | > 100 µM | – | – | – | – | – | – | – | – | – | –
CCCCCCCCCCCCCC1CCC(CC)N1 (stereo not drawn) | 32.4 µM | 16.5 µM | 18 µM | 40.6 µM | 31.5 µM | 31.8 µM | 32 µM | 17.1 µM | 21.2 µM | 29.6 µM | – | – | – | – | – | – | – | – | – | –
CCN(CC)c1sc(N(CC)CC)c2c1SSSSS2 | 3.55 µM | > 34.2 µM | 13.2 µM | 4.08 µM | 3.09 µM | 3.23 µM | 1.88 µM | 1.87 µM | > 100 µM | 1.14 µM | 1.68 µM | 1.24 µM | 2.76 µM | 1.79 µM | 1.2 µM | 1.45 µM | 0.765 µM | 0.721 µM | 3.08 µM | 356 nM
COc1ccc(-c2cn3ccsc3n2)cc1 | > 100 µM | > 100 µM | > 100 µM | > 100 µM | > 100 µM | > 100 µM | > 100 µM | > 100 µM | 85.7 µM | > 100 µM | – | – | – | – | – | – | – | – | – | –
Nc1ncc(-c2cnn(CCO)c2)c2scc(-c3ccc(NC(=O)Nc4cccc(F)c4)cc3)c12 | 1.19 µM | 14.3 µM | 1.72 µM | 1.89 µM | 6.69 µM | 3.31 µM | 3.43 µM | 1.78 µM | 5.09 µM | 3.18 µM | 0.0103 µM | 0.371 µM | 0.301 µM | 0.287 µM | 0.45 µM | 0.193 µM | 0.394 µM | 0.37 µM | 0.499 µM | 206 nM
Cc1cc(C)c(C(=O)CC(=O)c2cccnc2)c(C)c1 | > 100 µM | > 100 µM | > 100 µM | > 100 µM | 50.1 µM | 33.9 µM | > 100 µM | 41.8 µM | 31.7 µM | > 100 µM | 8.01 µM | 3.36 µM | 3.67 µM | 27.2 µM | 9.45 µM | 5.31 µM | 9.77 µM | 4.52 µM | 8.59 µM | 4310 nM
Fc1cc(F)c(COc2cc(Cn3cnc4c(Cl)nc(Cl)nc43)ccc2C23CC4CC(CC(C4)C2)C3)cc1F | 32.6 µM | 31.9 µM | 30.4 µM | 39.3 µM | 34.9 µM | – | 31.1 µM | 25.2 µM | 4.58 µM | 28.5 µM | 17.2 µM | 16 µM | 16.8 µM | 21 µM | 19.4 µM | – | 17.1 µM | 12.5 µM | 1.99 µM | 15200 nM
COC(=O)C(=O)C(C(=O)C(=O)Nc1ccccc1C(N)=O)c1nc2ccc(Cl)cc2[nH]c1=O (stereo not drawn) | > 100 µM | > 100 µM | > 100 µM | > 100 µM | > 100 µM | > 100 µM | – | > 100 µM | > 100 µM | > 100 µM | – | – | – | – | – | – | – | – | – | –
CCOC1=NC(=O)CC(c2ccccc2)S1 (stereo not drawn) | > 100 µM | > 100 µM | > 100 µM | > 100 µM | > 100 µM | > 100 µM | – | > 100 µM | > 100 µM | > 100 µM | – | – | – | – | – | – | – | – | – | –
Cc1ccc(Nc2nc3c(s2)C(=O)c2ccccc2C3=O)c(C)c1 | 33 µM | 41.5 µM | 42.5 µM | 22.8 µM | 32.5 µM | 28.9 µM | 36.6 µM | 29.5 µM | 6.02 µM | – | – | – | – | – | – | – | – | – | – | –
Cc1ccc(N(C(=O)CC(=O)NN)C(=O)c2ccccc2Cl)cc1 | > 100 µM | > 100 µM | > 100 µM | > 100 µM | > 100 µM | > 100 µM | – | > 100 µM | > 100 µM | > 100 µM | – | – | – | – | – | – | – | – | – | –
Clc1nc(Cl)c2ncn(Cc3cccc(COc4cccc(OCc5cccc(Cn6cnc7c(Cl)nc(Cl)nc76)c5)c4)c3)c2n1 | > 100 µM | > 100 µM | > 100 µM | > 100 µM | > 100 µM | > 100 µM | > 100 µM | > 100 µM | 31.3 µM | – | 34.6 µM | 39 µM | 36.9 µM | 13.5 µM | 74.8 µM | 26.1 µM | 37.5 µM | 60 µM | 4.61 µM | –
CCOC(=O)CN=c1nc(SC)sc2c(C(=O)OCC)nc(Sc3ccccc3)n12 | > 100 µM | – | – | > 100 µM | > 100 µM | > 100 µM | > 100 µM | > 100 µM | > 100 µM | > 100 µM | – | – | – | – | – | – | – | – | – | –
C=CCCCCCCCCC(=O)NS(=O)(=O)c1ccccc1 | > 100 µM | – | > 100 µM | > 100 µM | > 100 µM | > 100 µM | > 100 µM | > 100 µM | > 100 µM | > 100 µM | – | – | – | – | – | – | – | – | – | –
O=C(O)CP(=S)(S)c1ccccc1 (stereo not drawn) | > 100 µM | – | > 100 µM | > 100 µM | > 100 µM | > 100 µM | > 100 µM | > 100 µM | > 100 µM | – | – | – | – | – | – | – | – | – | – | –
Cc1noc(C)c1CCCOC1COc2ccccc2OCCOCCOc2ccccc2OC1 | > 100 µM | > 100 µM | > 100 µM | > 100 µM | > 100 µM | > 100 µM | > 100 µM | > 100 µM | > 100 µM | – | – | – | – | – | – | – | – | – | – | –
CC[O-].CC[O-].O=C1c2ccccc2C(=O)c2c(O)ccc([O-])c21.O=C1c2ccccc2C(=O)c2c(O)ccc([O-])c21.[Ti+4] | > 100 µM | > 100 µM | – | > 100 µM | > 100 µM | > 100 µM | > 100 µM | > 100 µM | > 100 µM | > 100 µM | – | – | – | – | – | – | – | – | – | –
O=c1cccccc1NCCCNc1cccccc1=O | > 100 µM | > 100 µM | > 100 µM | > 100 µM | > 100 µM | > 100 µM | – | > 100 µM | > 100 µM | > 100 µM | – | – | – | – | – | – | – | – | – | –
COC(=O)c1cc(Br)c(Br)n1C | > 100 µM | – | > 100 µM | > 100 µM | > 100 µM | > 100 µM | > 100 µM | > 100 µM | > 100 µM | > 100 µM | – | – | – | – | – | – | – | – | – | –

Reference: PubChem BioAssay (NCI)
